Experimental findings from patent publication US20120095030A1, “METHODS AND KITS TO PREDICT THERAPEUTIC OUTCOME OF TYROSINE KINASE INHIBITORS” (THE TRANSLATIONAL GENOMICS RESEARCH INSTITUTE, priority 2009, published 2012) are described below.

Common to all, as to assay type: cell-based
One test concerns H520 NSCLC cell line. Put plainly: AlamarBlue proliferation assay, H520. Conditions: Homo sapiens. As for the experimental part: (§1) Cytotoxicity is measured using fluorescence spectrophotometry.
(§2) TKI sensitivity was determined in NSCLC cell lines. Vandetanib and sunitinib sensitivity was measured in seven NSCLC cell lines. Erlotinib sensitivity was measured in nine NSCLC cell lines. An AlamarBlue proliferation assay at 72 hours was used to measure TKI sensitivity. GraphPad Prism 4.01 was used to determine IC50 values. Expression of seven miRNAs was measured by qRT-PCR. qRT-PCR data were normalized to the reference RNU6 and fold changes were computed against the selected sensitive cell line for each drug. A two-sided z-test was used to compute the p-values for the fold changes. A score was calculated for each miRNA/drug combination to see whether a miRNA can determine resistance across cell lines. Fold changes were first ternarized and assigned a value of +1, −1, or 0. Elevated miRNA expression relative to control (fold change>1 AND p-value<0.05) was assigned a value of +1. Reduced miRNA expression relative to control (fold change<1 AND p-value<0.05) was assigned a value of −1. Any non-significant fold change (p-value>0.05) was assigned a value of 0. These values were then multiplied by a value of +1 or −1 as assigned by the resistance characteristics of the cell line: Resistant cell lines were assigned a value=+1. Sensitive cell lines were assigned a value=−1. The final score was computed by the sum of the points for the cells lines divided by the number of cell lines (the reference cell line was not used in computing the scores).

A further test has as its system H2073 NSCLC cell line. Put plainly: AlamarBlue proliferation assay, H2073. Conditions: NCI-H2073, 72 hours. As for the experimental part: as §1
as §2, with “The final score was computed by the sum of the points for the cells lines divided by the number of cell lines (the reference cell line was not used in computing the scores).” left out

The next test concerns H2122 NSCLC cell line. In words: AlamarBlue proliferation assay, H2122. Conditions: Homo sapiens. Here is the method: as §1, §2
The next test deals with H358 NSCLC cell line. In words: AlamarBlue proliferation assay, H358. Conditions: Homo sapiens. As for the experimental part: as §1, §2
Test [1] has as its system NSCLC cell lines classified as resistant. In words: AlamarBlue proliferation assay, NSCLC lines classified as resistant. Conditions: read-out: IC50s of the remaining lines classified as resistant.
Method: (§4) Cells in the log phase of expansion are harvested and counted. The cells are then adjusted to a density of 1×10^4 cells/ml, though the optimum cell density may vary between cell types. […] The AlamarBlue® reagent is mixed, and then aseptically added to the cells in an amount around 10% of the well volume. Cells are incubated in the presence of the reagent from 4-8 hours. Cytotoxicity is measured using fluorescence spectrophotometry. Absorbance is measured at 570 nm and 600 nm blanked in a plate containing medium only. To calculate the percent difference in reduction between treated and control cells in Percentage difference between treated and control cells
(§5) TKI sensitivity was determined in NSCLC cell lines. […] An AlamarBlue proliferation assay at 72 hours was used to measure TKI sensitivity. GraphPad Prism 4.01 was used to determine IC50 values.
In another test the test system is H1703 NSCLC cell line. In words: AlamarBlue proliferation assay, H1703. Conditions: Homo sapiens. Here is the method:
as §1, §2

In the next test the test system is A549 NSCLC cell line. In words: AlamarBlue proliferation assay, A549. Conditions: Homo sapiens. As for the experimental part:
as §1, §2

For another test, the system named is H460 NSCLC cell line. In words: AlamarBlue proliferation assay, H460. Conditions: Homo sapiens. As for the experimental part:
as §1, §2

For another test, the system named is HCC4006 NSCLC cell line. In words: AlamarBlue proliferation assay, HCC4006. Conditions: Homo sapiens, 72 hours. Here is the method:
as §1
as §2, with “The final score was computed by the sum of the points for the cells lines divided by the number of cell lines (the reference cell line was not used in computing the scores).” left out

Test [2] deals with H1703 Sunitinib resistant line B (H1703 SRb). Put plainly: Alamar blue assay, H1703 SRb. Conditions: Homo sapiens, NCI-H1703, read-out: Sunitinib IC50(μM), Example 3, mean of three experiments. Here is the method: (§3) GraphPad Prism 4.01 was used to calculate IC50 values. […] GenoSensor GenoExplorer™ microRNA Expression System (Sanger miRNA Registry version 14 containing probes for 904 mature miRNAs and 450 pre-miRNAs) was used to screen miR expression. Differences in miRs expression between the parent and resistant cells were identified using at test with Benjamini-Hochberg correction and validated by qPCR. A score was calculated for each miRNA to determine whether a miRNA can predict SR.

The subject of test [3] is H1703 Sunitinib resistant line A (H1703 SRa). In words: Alamar blue assay, H1703 SRa. Conditions: Homo sapiens, NCI-H1703, read-out: Sunitinib IC50(μM), Example 3, mean of three experiments. As for the experimental part: as §3
A further test relates to HCC827 NSCLC cell line. Put plainly: AlamarBlue proliferation assay, HCC827. Conditions: Homo sapiens, 72 hours.
The mark [4] stands for this setting: NCI-H520, H520, AlamarBlue proliferation, 72 hours, read-out: IC50.
The mark [5] stands for this setting: NCI-H2122, H2122, AlamarBlue proliferation, 72 hours, read-out: IC50.
Where [6] appears, read: NCI-H358, H358, AlamarBlue proliferation, 72 hours, read-out: IC50.
Where [7] appears, read: NCI-H1703, H1703, AlamarBlue proliferation, 72 hours, read-out: IC50.
Setting [8] is: A549, AlamarBlue proliferation, 72 hours, read-out: IC50.
[9] abbreviates: NCI-H460, H460, AlamarBlue proliferation, 72 hours, read-out: IC50.
Where [10] appears, read: range across resistant NSCLC lines, 72 hours.

Each structure is given as a SMILES string. Like-named read-outs stand apart in the source and are kept apart here.

Method for HCC827 NSCLC cell line: One method of measuring IC50 by AlamarBlue proliferation that may be used in determining an IC50 is as follows:
as §4, §5

Regarding `C#Cc1cccc(Nc2ncnc3cc(OCCOC)c(OCCOC)cc23)c1` [Erlotinib, N-(3-ethynylphenyl)-6,7-bis(2-methoxyethoxy)quinazolin-4-amine], the IC50 with H520 NSCLC cell line (setting [4]) is more than 50 µM; with H2073 NSCLC cell line it was 9.7 µM; with H2122 NSCLC cell line (setting [5]) it was 12.3 µM; in the test on H358 NSCLC cell line (setting [6]), 28.6 µM; in test [1] (72 h), not below 9.7 µM; in the test on H1703 NSCLC cell line (setting [7]), more than 50 µM. Besides, the values for the IC50 in the test on A549 NSCLC cell line (setting [8]), in the test with H460 NSCLC cell line (setting [9]) and in the test on HCC4006 NSCLC cell line were more than 50 µM, 39.2 µM and 0.02 µM, respectively.

As to `CCN(CC)CCNC(=O)c1c(C)[nH]c(/C=C2\C(=O)Nc3ccc(F)cc32)c1C` [Sunitinib, N-[2-(diethylamino)ethyl]-5-[(Z)-(5-fluoro-1,2-dihydro-2-oxo-3H-indol-3-ylidine)methyl]-2,4-dimethyl-1H-pyrrole-3-carboxamide], the IC50 with H520 NSCLC cell line (NCI-H520, read-out: Sunitinib IC50(μM), H520, Example 3, mean of three experiments) stood at 8.2 µM; with H520 NSCLC cell line (setting [4]), 8.2 µM; in test [2] it was 4.37 µM; in the test on H2122 NSCLC cell line (NCI-H2122, read-out: Sunitinib IC50(μM), H2122, Example 3, mean of three experiments), 4.8 µM; with H2122 NSCLC cell line (setting [5]), 4.8 µM; in the test on H358 NSCLC cell line (NCI-H358, read-out: Sunitinib IC50(μM), H358, Example 3, mean of three experiments), 14.2 µM. Moreover, the IC50 is 14.2 µM in the test on H358 NSCLC cell line (setting [6]); 7.6 µM in test [3]; 4.8 to 14.2 µM in test [1] (setting [10]); 0.13 µM in the test on H1703 NSCLC cell line (NCI-H1703, read-out: Sunitinib IC50(μM), H1703 control, Example 3, mean of three experiments); 0.51 µM with H1703 NSCLC cell line (setting [7]); 5.5 µM in the test on A549 NSCLC cell line (read-out: Sunitinib IC50(μM), A549, Example 3, mean of three experiments). For the same compound, the IC50 with A549 NSCLC cell line (setting [8]) was determined as 5.5 µM; with H460 NSCLC cell line (NCI-H460, read-out: Sunitinib IC50(μM), H460, Example 3, mean of three experiments), 5.6 µM; in the test on H460 NSCLC cell line (setting [9]), 5.6 µM.

`COc1cc2c(Nc3ccc(Br)cc3F)ncnc2cc1OCC1CCN(C)CC1` [Vandetanib]: the IC50 with H520 NSCLC cell line (setting [4]) is 12.1 µM; in the test on H2122 NSCLC cell line (setting [5]) it was 5.9 µM; in the test on HCC827 NSCLC cell line, 0.55 µM; with H358 NSCLC cell line (setting [6]) it was 4.2 µM; in [1] (setting [10]), 2.1 to 13.9 µM; in the test with H1703 NSCLC cell line (setting [7]) it was 2.1 µM. The IC50 is 9.7 µM in the test on A549 NSCLC cell line (setting [8]) and 13.9 µM with H460 NSCLC cell line (setting [9]).
